Measured values from article PMC7126698 (Bioorganic & Medicinal Chemistry, 2008).

Test system: mature 3CL protease
Assay type: biochemical, SARS coronavirus

H-Thr-Ser-Ala-Val-Leu-Gln-Ser-Gly-Phe-Arg-Lys-NH2 [SO1]
disappearance of SO1: completely disappeared within 1 h
